The structures appear in SMILES notation.

The target in the test is Platelet-activating factor receptor (Oryctolagus cuniculus). In words: Antagonistic activity was tested against Platelet-Activating Factor-induced aggregation of rabbit washed platelets.
For `Cc1nc2cnccc2n1-c1ccc(C2=Nc3ccccc3C(=O)CC2)cc1` [2-[4-(2-Methyl-imidazo[4,5-c]pyridin-1-yl)-phenyl]-1,4-dihydro-benzo[b]azepin-5-one], the IC50 is 15 nM.

Compound `Cc1cc2c(cc1C)NC(=S)CC(c1ccc(-n3c(C)nc4cnccc43)cc1)=N2` [7,8-Dimethyl-4-[4-(2-methyl-imidazo[4,5-c]pyridin-1-yl)-phenyl]-1,3-dihydro-benzo[b][1,4]diazepine-2-thione] came in with an IC50 of 0.6 nM.

Turning to `Cc1cc2c(cc1C)NC(=O)CC(c1ccc(-n3c(C)nc4cnccc43)cc1)=N2` [7,8-Dimethyl-4-[4-(2-methyl-imidazo[4,5-c]pyridin-1-yl)-phenyl]-1,3-dihydro-benzo[b][1,4]diazepin-2-one], the IC50 was 0.7 nM.

`Cc1nc2cnccc2n1-c1ccc(I)cc1` [1-(4-Iodo-phenyl)-2-methyl-1H-imidazo[4,5-c]pyridine]: the IC50 came out at 67 nM.

As to `Cc1nc2cnccc2n1-c1ccc(C2CC(=O)N(C)c3cc(Cl)c(Cl)cc3C2)cc1` (centres undefined) [7,8-Dichloro-1-methyl-4-[4-(2-methyl-imidazo[4,5-c]pyridin-1-yl)-phenyl]-1,3,4,5-tetrahydro-benzo[b]azepin-2-one], the IC50 came out at 0.5 nM.

In turn, `Cc1nc2cnccc2n1-c1ccc(-c2cc(=O)n3[nH]ccc3n2)cc1` [5-[4-(2-Methyl-imidazo[4,5-c]pyridin-1-yl)-phenyl]-4H-pyrazolo[1,5-a]pyrimidin-7-one] registered an IC50 of 2800 nM.

Compound `Cc1nc2cnccc2n1-c1ccccc1` [2-Methyl-1-phenyl-1H-imidazo[4,5-c]pyridine] came in with an IC50 of 840 nM.

The compound `Cc1nc2cnccc2n1-c1ccc(C2=Nc3ccccc3N(C)C(=O)C2)cc1` [1-Methyl-4-[4-(2-methyl-imidazo[4,5-c]pyridin-1-yl)-phenyl]-1,3-dihydro-benzo[b][1,4]diazepin-2-one] returned an IC50 of 4.9 nM.

Compound `Cc1nc2cnccc2n1-c1ccc(C2CC(=O)Nc3cc(Cl)c(Cl)cc3C2)cc1` (centres undefined) [7,8-Dichloro-4-[4-(2-methyl-imidazo[4,5-c]pyridin-1-yl)-phenyl]-1,3,4,5-tetrahydro-benzo[b]azepin-2-one] returned an IC50 of 0.5 nM.

As to `Cc1nc2cnccc2n1-c1ccc(C2=NC3CCCCC3NC(=O)C2)cc1` (centres undefined) [4-[4-(2-Methyl-imidazo[4,5-c]pyridin-1-yl)-phenyl]-1,5,5a,6,7,8,9,9a-octahydro-benzo[b][1,4]diazepin-2-one], the IC50 is 200 nM.

`Cc1cc2c(cc1C)N=C(c1ccc(-n3c(C)nc4cnccc43)cc1)CC(N)=N2` [7,8-Dimethyl-4-[4-(2-methyl-imidazo[4,5-c]pyridin-1-yl)-phenyl]-1,3-dihydro-benzo[b][1,4]diazepin-(2E)-ylideneamine] returned an IC50 of 1.9 nM.

`Cc1nc2cnccc2n1-c1ccc(-c2nnc(-c3ccccc3)o2)cc1` [2-Methyl-1-[4-(5-phenyl-[1,3,4]oxadiazol-2-yl)-phenyl]-1H-imidazo[4,5-c]pyridine] came in with an IC50 of 44 nM.

Take `Cc1nc2cnccc2n1-c1ccc(C2=Nc3cc(Cl)c(Cl)cc3NC(=S)C2)cc1` [7,8-Dichloro-4-[4-(2-methyl-imidazo[4,5-c]pyridin-1-yl)-phenyl]-1,3-dihydro-benzo[b][1,4]diazepine-2-thione]: it took 0.5 nM to reach half-maximal inhibition (IC50).

As to `Cc1nc2cnccc2n1-c1ccc(C2=NCCNC(=O)C2)cc1` [7-[4-(2-Methyl-imidazo[4,5-c]pyridin-1-yl)-phenyl]-1,2,3,4-tetrahydro-[1,4]diazepin-5-one], 2600 nM corresponded to half-maximal inhibition (IC50).

(Values after BindingDB's records for doi:10.1021/jm00018a011 (Pfizer, 1995).)
